Experimental data as given in PMC6277375, “Pharmacological profile of the neuropeptide S receptor: Dynamic mass redistribution studies” (Pharmacology Research & Perspectives, 2018).
Marks after values point to notes of the source that are not given here. Square brackets hold non-standard residues; d marks the D form. Ends that are not written are not given here. Peptide text beside a SMILES is read from it. Bip = N[C@@H](Cc1ccc(-c2ccccc2)cc1)C(=O)O; Aib = CC(C)(N)C(=O)O

Assays:
[1] = biological target: T1, murine NPSR (Mus musculus, UniProt Q8BZP8); assay: Dynamic mass redistribution (DMR) assay in HEK293mNPSR cells; type: cell-based; conditions: for DMR response, HEK293mNPSR pm ± SEM: peak at 60 minute, mean ± SEM, duplicate; for EC50 / intrinsic activity α ± SEM / Agonist potency pEC50 (CL95%): DMR; for EC50 / Agonist potency pEC50 (CL95%): agonism protocol, 60 minute recording, at least three experiments in duplicate; for EC50: read-out: Agonist potency pEC50 (CL95%) (converted); for fold less potent than NPS (DMR): agonist potency relative to NPS; for Effect of inhibitor on NPS-evoked DMR response: FR900359 1 μmol L^−1 (60 minute before NPS), PTX 100 ng mL^−1 (24 hours before), rolipram 10 μmol L^−1 (90 minute before)
T1 construct: expressed in transfected cells
T1 sequence (Q8BZP8 1-371): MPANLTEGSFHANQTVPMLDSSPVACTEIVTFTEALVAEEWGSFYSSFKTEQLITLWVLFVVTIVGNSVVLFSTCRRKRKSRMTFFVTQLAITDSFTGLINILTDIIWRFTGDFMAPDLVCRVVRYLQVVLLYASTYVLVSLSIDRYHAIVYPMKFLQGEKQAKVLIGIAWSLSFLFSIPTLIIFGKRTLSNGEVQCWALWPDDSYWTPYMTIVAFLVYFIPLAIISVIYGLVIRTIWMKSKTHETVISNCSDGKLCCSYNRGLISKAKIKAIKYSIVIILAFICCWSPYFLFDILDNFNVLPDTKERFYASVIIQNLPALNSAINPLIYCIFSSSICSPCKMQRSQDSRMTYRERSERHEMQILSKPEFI
Description: (§1) HEK293 cells stably expressing the murine NPSR receptor (HEK293mNPSR) were described previously.3 Wild‐type HEK293 cells were used as a control. Cells were maintained in Dulbecco's Medium (DMEM) supplemented with 10% fetal bovine serum, 100 U/mL penicillin, 100 μg/mL streptomycin and, 2 mmol L^−1 L‐glutamine. The medium was complemented with 100 mg/L hygromycin for HEK293mNPSR. Cells were cultured at 37°C in 5% CO2 humidified air.
Confluent cells were subcultured using trypsin/EDTA and used for experiments. […] On the day of the experiment, cells were manually washed twice and maintained with assay buffer for 90 minutes before DMR experiments. DMR was monitored in real time with a temporal resolution of 22 seconds throughout the assay. Experiments were performed at 37°C, using an EnSight Multimode Plate Reader (PerkinElmer), that uses the Corning® Epic® Technology to measure the DMR signal. Agonism protocol: a 5‐minute baseline was first established, followed by adding compounds manually in a volume of 10 μL and recording compounds‐triggered DMR signal for 60 minute. Antagonism protocol: antagonists were added manually 25 minute before reading the 5‐minute baseline. After baseline establishment, NPS was injected and DMR signal was recorded for 60 minute. Antagonist properties of ligands were measured by assessing the concentration‐response curve to NPS in the absence and in presence of a fixed concentration of compound. FR900359 was added 60 minute before NPS, rolipram was incubated for 90 minute before NPS, while PTX was added 24 hours before NPS. Maximum picometer (pm) modifications (peak measured at 60 minute time point) were used to determine agonist response after baseline normalization.
All data were analyzed using Graph Pad Prism 6.0 (La Jolla, CA, USA). Concentration‐response curves were fitted using the four parameters log logistic equation. Data are expressed as mean ± SEM of n experiments performed in duplicate and were analyzed using one‐ or two‐way analysis of variance (ANOVA) followed by Dunnett's or Tukey's test for multiple comparisons wherever appropriate. […] Antagonists potencies were assayed at single concentrations against the concentration‐response curve to NPS and their pA2 was derived using the following equation: pA2 = log(CR − 1) − log[A], where CR is the ratio between agonist potency (EC50) in the presence and in absence of antagonist and [A] is the molar concentration of antagonist.

[2] = tested on: wild-type HEK293 cells; assay: DMR assay in wild-type HEK293 cells (control); type: cell-based, Human; conditions: mean ± SEM, duplicate
Description: as §1
Confluent cells were subcultured using trypsin/EDTA and used for experiments. Cells were seeded at a density of 20 000 cells/well in 30 μL into fibronectin‐coated Enspire™‐LC 384‐wells plates and cultured for 20 hours to form a confluent monolayer. On the day of the experiment, cells were manually washed twice and maintained with assay buffer for 90 minutes before DMR experiments. DMR was monitored in real time with a temporal resolution of 22 seconds throughout the assay. Experiments were performed at 37°C, using an EnSight Multimode Plate Reader (PerkinElmer), that uses the Corning® Epic® Technology to measure the DMR signal. Agonism protocol: a 5‐minute baseline was first established, followed by adding compounds manually in a volume of 10 μL and recording compounds‐triggered DMR signal for 60 minute. Antagonism protocol: antagonists were added manually 25 minute before reading the 5‐minute baseline. After baseline establishment, NPS was injected and DMR signal was recorded for 60 minute. Antagonist properties of ligands were measured by assessing the concentration‐response curve to NPS in the absence and in presence of a fixed concentration of compound. FR900359 was added 60 minute before NPS, rolipram was incubated for 90 minute before NPS, while PTX was added 24 hours before NPS. Maximum picometer (pm) modifications (peak measured at 60 minute time point) were used to determine agonist response after baseline normalization.
All data were analyzed using Graph Pad Prism 6.0 (La Jolla, CA, USA). Concentration‐response curves were fitted using the four parameters log logistic equation. Data are expressed as mean ± SEM of n experiments performed in duplicate and were analyzed using one‐ or two‐way analysis of variance (ANOVA) followed by Dunnett's or Tukey's test for multiple comparisons wherever appropriate. Agonist potency was expressed as pEC50, which is the negative logarithm to base 10 of the agonist molar concentration that produces 50% of the maximal possible effect of that agonist. Antagonists potencies were assayed at single concentrations against the concentration‐response curve to NPS and their pA2 was derived using the following equation: pA2 = log(CR − 1) − log[A], where CR is the ratio between agonist potency (EC50) in the presence and in absence of antagonist and [A] is the molar concentration of antagonist.

[3] = ligand 1 μmol L^−1, 37°C, peak at 60 minute
[4] = ligand 10 μmol L^−1, 37°C, peak at 60 minute after baseline normalization

Row | Molecule | intrinsic activity α ± SEM ([1]; relative to NPS = 1.00, SEM) | fold less potent than NPS (DMR) [1] | DMR response, HEK293mNPSR pm ± SEM ([1]; ligand 10 μmol L^−1, 37°C) | DMR response, HEK293 pm ± SEM [2, 4] | also measured
1 | C[N+](C)(C)CCOC(N)=O [Carbachol, reference compound] |  |  |  |  | DMR response, HEK293mNPSR pm ± SEM ([1]; ligand 100 μmol L^−1, 37°C): 393 ± 9 ^a pm; DMR response, HEK293 pm ± SEM ([2]; ligand 100 μmol L^−1, 37°C, peak at 60 minute): 480 ± 51 ^a pm
2 | CSCC[C@H](NC(=O)CNC(=O)[C@@H](NC(=O)CNC(=O)[C@@H](NC(=O)C(C)(C)NC(=O)[C@H](CC(N)=O)NC(=O)[C@H](CCCNC(=N)N)NC(=O)[C@H](Cc1ccccc1)NC(=O)[C@@H](N)CO)C(C)C)[C@@H](C)O)C(=O)N[C@@H](CCCCN)C(=O)N[C@@H](CCCCN)C(=O)N[C@H](C(=O)N[C@@H](CO)C(=O)N[C@@H](Cc1ccccc1)C(=O)N[C@@H](CCC(N)=O)C(=O)N[C@@H](CCCNC(=N)N)C(=O)N[C@@H](C)C(=O)N[C@@H](CCCCN)C(=O)N[C@@H](CO)C(=O)O)[C@@H](C)O [[Aib^5]NPS] (H-SFRN[Aib]VGTGMKKTSFQRAKS-OH) |  |  |  |  | EC50 [1]: 145 nM
3 | CSCC[C@H](NC(=O)CNC(=O)[C@@H](NC(=O)CNC(=O)[C@@H](NC(=O)CNC(=O)[C@H](CC(N)=O)NC(=O)[C@H](CCCNC(=N)N)NC(=O)[C@H](Cc1ccc(-c2ccccc2)cc1)NC(=O)[C@@H](N)CO)C(C)C)[C@@H](C)O)C(=O)N[C@@H](CCCCN)C(=O)N[C@@H](CCCCN)C(=O)N[C@H](C(=O)N[C@@H](CO)C(=O)N[C@@H](Cc1ccccc1)C(=O)N[C@@H](CCC(N)=O)C(=O)N[C@@H](CCCNC(=N)N)C(=O)N[C@@H](C)C(=O)N[C@@H](CCCCN)C(=O)N[C@@H](CO)C(=O)O)[C@@H](C)O [[Bip^2]NPS] (H-S[Bip]RNGVGTGMKKTSFQRAKS-OH; N-terminus and C-terminus assumed) | 1.01 ± 0.04 | approximately 30 fold | 761 ± 60 ^a pm | 191 ± 30 ^a pm | DMR response, HEK293mNPSR pm ± SEM ([1]; ligand 1 μmol L^−1, 37°C): 577 ± 2 ^a pm; DMR response, HEK293 pm ± SEM [2, 3]: 47 ± 16 pm
4 | CSCC[C@H](NC(=O)CNC(=O)[C@@H](NC(=O)CNC(=O)[C@@H](NC(=O)[C@@H](C)NC(=O)[C@H](CC(N)=O)NC(=O)[C@H](CCCNC(=N)N)NC(=O)[C@H](Cc1ccccc1)NC(=O)[C@@H](N)CO)C(C)C)[C@@H](C)O)C(=O)N[C@@H](CCCCN)C(=O)N[C@@H](CCCCN)C(=O)N[C@H](C(=O)N[C@@H](CO)C(=O)N[C@@H](Cc1ccccc1)C(=O)N[C@@H](CCC(N)=O)C(=O)N[C@@H](CCCNC(=N)N)C(=O)N[C@@H](C)C(=O)N[C@@H](CCCCN)C(=O)N[C@@H](CO)C(=O)O)[C@@H](C)O [[D‐Ala^5]NPS] (H-SFRN[dA]VGTGMKKTSFQRAKS-OH; N-terminus and C-terminus assumed) | 1.09 ± 0.04 | approximately 30 fold | 686 ± 50 ^a pm | 55 ± 14 pm | 
5 | COc1ccc(C2CNC(=O)C2)cc1OC1CCCC1 (stereo not shown) [rolipram, reference compound] |  |  |  |  | Effect of inhibitor on NPS-evoked DMR response [1]: did not change NPS effects
6 | FRNGVGTGMKKTSFQRAKS [NPS(2‐20)] | 1.14 ± 0.05 | approximately 30 fold | 782 ± 46 ^a pm | 70 ± 10 pm | 
7 | NPS(1‐6): NPS fragment (SFRNGV; Neuropeptide S; UniProt P0C0P6 70-75, looked up, fragment) |  |  | 356 ± 48 ^a pm | 25 ± 10 pm | Agonist potency pEC50 (CL95%) [1]: crc incomplete; intrinsic activity α ± SEM ([1]; relative to NPS = 1.00): crc incomplete
8 | NPS(3‐20): NPS fragment (RNGVGTGMKKTSFQRAKS; Neuropeptide S; UniProt P0C0P6 72-89, looked up, fragment) |  |  | 675 ± 54 ^a pm | 166 ± 14 ^a pm | Agonist potency pEC50 (CL95%) [1]: crc incomplete; intrinsic activity α ± SEM ([1]; relative to NPS = 1.00): crc incomplete; DMR response, HEK293mNPSR pm ± SEM ([1]; ligand 1 μmol L^−1, 37°C): 315 ± 17 ^a pm; DMR response, HEK293 pm ± SEM [2, 3]: 41 ± 14 pm
9 | Pertussis Toxin [PTX] |  |  |  |  | Effect of inhibitor on NPS-evoked DMR response [1]: did not modify NPS‐evoked DMR response
10 | SFRNGVATGMKKTSFQRAKS [[Ala^7]NPS] | 1.03 ± 0.03 |  | 692 ± 15 ^a pm | 115 ± 33 pm | 
11 | SFRNGVGTGM [NPS(1‐10)] | 1.09 ± 0.14 | 100 fold | 683 ± 90 ^a pm | 27 ± 6 pm | fold less potent than NPS (DMR) ([1]; listed as NPS (1‐10)): approximately 100 fold
12 | SFRNGVGTGMKKTSFQRAKS [NPS, Neuropeptide S] |  |  |  |  | EC50 [1]: 1.66 nM
13 | [D‐Val^5]NPS |  |  |  |  | Agonist potency pEC50 (CL95%) [1]: Inactive; intrinsic activity α ± SEM ([1]; relative to NPS = 1.00): Inactive
